Laboratory results reported in patent US20150105252A1, “SUBSTITUTED PYRAZOLES AS HERBICIDES” (E I DU PONT DE NEMOURS AND COMPANY, priority 2013, published 2015).

What was measured:
barnyardgrass [1] = assay: Test A preemergence; type: in vivo, Echinochloa crus-galli
How it was run: (§1)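 Injury readout: eye-scored versus untreated controls, 0 to 100. Exposure period: ~10 days, greenhouse. Application: soil-directed spray over sown seed (pre) or spray on seedlings 2–10 cm tall with one or two leaves (post), compound carried in non-phytotoxic solvent including surfactant.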

sedge, umbrella = assay: Test B flood; type: in vivo, Cyperus difformis; conditions: 250 g ai/ha, visual rating on 0 to 100 scale (0 no effect, 100 complete control), 13 to 15 days
How it was run: (§2)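 Each compound is applied to the floodwater of pots holding 2-leaf seedlings, water standing 3 cm over the soil throughout. Plants stay in a greenhouse 13 to 15 days before visual scoring against controls from 0 (no effect) to 100 (complete control).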

foxtail, giant [2] = assay: Test A postemergence; type: in vivo, Setaria faberii
How it was run: as §1

nutsedge, yellow = assay: Test C preemergence; type: in vivo, Cyperus esculentus; conditions: for Plant response rating (scale of 0 to 100), Nutsedge, Yellow: Preemergence, 250 g ai/ha; for Nutsedge, Yellow plant response rating / Plant response rating, Nutsedge, Yellow: preemergence; for Plant response rating, Nutsedge, Yellow: scale 0 to 100, 0 = no effect, 100 = complete control
Text: (§3) Seeds of plant species selected from blackgrass (Alopecurus myosuroides), ryegrass, Italian (Italian ryegrass, Lolium multiflorum), wheat (winter wheat, Triticum aestivum), galium (catchweed bedstraw, Galium aparine), corn (Zea mays), crabgrass, large (large crabgrass, Digitaria sanguinalis), foxtail, giant (giant foxtail, Setaria faberii), johnsongrass (Sorghum halepense), lambsquarters (Chenopodium album), morningglory (Ipomoea coccinea), nutsedge, yellow (yellow nutsedge, Cyperus esculentus), pigweed (redroot pigweed, Amaranthus retroflexus), ragweed (common ragweed, Ambrosia elation), soybean (Glycine max), barnyardgrass (Echinochloa crus-galli), oilseed rape (Brassica napus), waterhemp (common waterhemp, Amaranthus rudis), oat, wild (wild oat, Avena fatua), kochia (Kochia scoparia), Surinam grass (Brachiaria decumbens), foxtail, green (green foxtail, Setaria viridis), goosegrass (Eleusine indica), bromegrass, downy (downy bromegrass, Bromus tectorum), nightshade (eastern black nightshade, Solanum ptycanthum), cocklebur (common cocklebur, Xanthium strumarium), cupgrass, woolly (woolly cupgrass, Eriochloa villosa), bermudagrass (Cynodon dactylon), sunflower, (common oilseed sunflower, Helianthus annuus), Russian thistle (Salsola kali), and velvetleaf (Abutilon theophrasti) were planted into a blend of loam soil and sand and treated preemergence with test chemicals formulated in a non-phytotoxic solvent mixture which included a surfactant.
(§4) At the same time, plants selected from these crop and weed species and also chickweed (common chickweed, Stellaria media), canarygrass (littleseed canarygrass, Phalaris minor), and deadnettle (henbit deadnettle, Lamium amplexicaule), were planted in pots containing Redi-Earth® planting medium (Scotts Company, 14111 Scottslawn Road, Marysville, Ohio 43041) comprising spaghnum peat moss, vermiculite, wetting agent and starter nutrients and treated with postemergence applications of test chemicals formulated in the same manner. Plants ranged in height from 2 to 18 cm (1- to 4-leaf stage) for postemergence treatments. Treated plants and controls were maintained in a greenhouse for 13 to 15 days, after which time all species were compared to controls and visually evaluated. Plant response ratings, summarized in Table C, are based on a scale of 0 to 100 where 0 is no effect and 100 is complete control. A dash (-) response means no test result.

corn = assay: Test A preemergence; type: in vivo, Zea mays
How it was run: as §1

foxtail, giant [3] = assay: Test A preemergence; type: in vivo, Setaria faberii
How it was run: as §1

barnyardgrass [4] = assay: Test B flood; type: in vivo, Echinochloa crus-galli; conditions: 250 g ai/ha, visual rating on 0 to 100 scale (0 no effect, 100 complete control), 13 to 15 days
How it was run: as §2

velvetleaf [5] = assay: Test A postemergence; type: in vivo, Abutilon theophrasti
How it was run: as §1

velvetleaf [6] = assay: Test A preemergence; type: in vivo, Abutilon theophrasti
How it was run: as §1

wheat = assay: Test A preemergence; type: in vivo, Triticum aestivum; conditions: preemergence
How it was run: as §1

pigweed = assay: Test C preemergence; type: in vivo, Amaranthus retroflexus; conditions: for Plant response rating (scale of 0 to 100), Pigweed: Preemergence, 250 g ai/ha; for Pigweed plant response rating / Plant response rating, Pigweed: preemergence; for Plant response rating, Pigweed: scale 0 to 100, 0 = no effect, 100 = complete control
Text: as §3, §4

barnyardgrass [7] = assay: Test A postemergence; type: in vivo, Echinochloa crus-galli
How it was run: as §1

crabgrass, large = assay: Test C preemergence; type: in vivo, Digitaria sanguinalis; conditions: for Plant response rating (scale of 0 to 100), Crabgrass, Large: Preemergence, 250 g ai/ha; for Crabgrass, Large plant response rating / Plant response rating, Crabgrass, Large: preemergence; for Plant response rating, Crabgrass, Large: scale 0 to 100, 0 = no effect, 100 = complete control
Text: as §3, §4

morningglory = assay: Test C preemergence; type: in vivo, Ipomoea coccinea; conditions: for Plant response rating (scale of 0 to 100), Morningglory: Preemergence, 250 g ai/ha
Text: as §3, §4

[8] = Preemergence, 500 g ai/ha, 0 to 100 scale, 0 no effect, 100 complete control
[9] = preemergence, 125 g ai/ha, visual injury, 0 to 100 scale, approx. 10 days
[10] = Postemergence, 500 g ai/ha, visual rating after approx. 10 days, 0 to 100 scale (0 no effect, 100 complete control)
[11] = postemergence, 125 g ai/ha, about 10 days, visual rating on 0 to 100 scale (0 no effect, 100 complete control)
[12] = 31 g ai/ha, visual rating, scale 0 to 100 (0 no effect, 100 complete control), 13 to 15 days
[13] = 125 g ai/ha, scale 0 to 100, 0 is no effect, 100 is complete control
[14] = 125 g ai/ha, visual injury, 0 to 100 scale, approx. 10 days
[15] = 500 g ai/ha, visual injury after approx. 10 days, 0 to 100 scale (0 no effect, 100 complete control)
[16] = preemergence, 500 g ai/ha, visual injury after approx. 10 days, 0 to 100 scale (0 no effect, 100 complete control)
[17] = Postemergence, 500 g ai/ha, 0 to 100 scale (0 no effect, 100 complete control)
[18] = 62 g ai/ha, scale 0 to 100 (0 no effect, 100 complete control), 13 to 15 days
[19] = preemergence, 31 g ai/ha, visual rating, scale 0 to 100 (0 no effect, 100 complete control), 13 to 15 days
[20] = preemergence, 62 g ai/ha, scale 0 to 100 (0 no effect, 100 complete control), 13 to 15 days
[21] = preemergence, 125 g ai/ha, visual injury approx. 10 days after treatment

| Structure (SMILES) | Barnyardgrass plant response rating (barnyardgrass [1]; [9]) | Plant response rating, Sedge, Umbrella (sedge, umbrella) | Foxtail, Giant plant response rating (foxtail, giant [2]; [11]) | Plant response rating (scale of 0 to 100), Nutsedge, Yellow (nutsedge, yellow) | Nutsedge, Yellow plant response rating (nutsedge, yellow; [12]) | Nutsedge, Yellow plant response rating (nutsedge, yellow; [13]) | Corn plant response rating (corn; [9]) | Foxtail, Giant plant response rating (foxtail, giant [3]; [9]) | Plant response rating, Barnyardgrass (barnyardgrass [4]) | Velvetleaf plant response rating (velvetleaf [5]; [11]) | Velvetleaf plant response rating (velvetleaf [6]; [9]) | Plant response rating (scale of 0 to 100), Pigweed (pigweed) | Pigweed plant response rating (pigweed; [12]) | Plant response rating (scale of 0 to 100), Crabgrass, Large (crabgrass, large) | Crabgrass, Large plant response rating (crabgrass, large; [12]) | Barnyardgrass plant response rating (barnyardgrass [1]; [16]) | Foxtail, Giant plant response rating (foxtail, giant [2]; [17]) | Foxtail, Giant plant response rating (foxtail, giant [3]; [16]) | Barnyardgrass plant response rating (barnyardgrass [7]; [17]) | Barnyardgrass plant response rating (barnyardgrass [7]; [11]) | further results |
| --- | --- | --- | --- | --- | --- | --- | --- | --- | --- | --- | --- | --- | --- | --- | --- | --- | --- | --- | --- | --- | --- |
| CCc1cc(C(=O)NCC(F)(F)F)nn1Cc1ccnc(C(F)(F)F)c1 [Compound 78, 5-ethyl-N-(2,2,2-trifluoroethyl)-1-[[(2-trifluoromethyl)-4-pyridinyl]methyl]-1H-pyrazole-3-carboxamide] | 100 | 80 | 90 | 98 | 70 | 98 | 60 | 100 | 50 | 100 | 100 | 100 | 100 | 100 | 100 | – | – | – | – | – | Barnyardgrass plant response rating (barnyardgrass [1]; [8]): 100; Foxtail, Giant plant response rating (foxtail, giant [2]; [10]): 100; Plant response rating, Nutsedge, Yellow (nutsedge, yellow; 62 g ai/ha, 13 to 15 days): 85; Corn plant response rating (corn; [8]): 70; Foxtail, Giant plant response rating (foxtail, giant [3]; [8]): 100; Velvetleaf plant response rating (velvetleaf [5]; [10]): 100; Velvetleaf plant response rating (velvetleaf [6]; [8]): 100; Wheat plant response rating (wheat; [14]): 50; Wheat plant response rating (wheat; [15]): 100; Plant response rating, Pigweed (pigweed; 62 g ai/ha, 13 to 15 days): 100; Pigweed plant response rating (pigweed; [13]): 100; Barnyardgrass plant response rating (barnyardgrass [7]; Postemergence, 125 g ai/ha, 0 to 100 scale, 0 no effect, 100 complete control): 50; Barnyardgrass plant response rating (barnyardgrass [7]; [10]): 90; Plant response rating, Crabgrass, Large (crabgrass, large; 62 g ai/ha, 13 to 15 days): 100; Crabgrass, Large plant response rating (crabgrass, large; [13]): 100 |
| CCONC(=O)c1cc(CC)n(Cc2cc(C(F)(F)F)no2)n1 [Compound 125] | 80 | 50 | 30 | 55 | 0 | 15 | – | 80 | 20 | – | – | 100 | 65 | 95 | 5 | 100 | 90 | 100 | 90 | 30 | Nutsedge, Yellow plant response rating (nutsedge, yellow; [18]): 5; Plant response rating (scale of 0 to 100), Morningglory (morningglory): 95; Morningglory plant response rating (morningglory; [19]): 45; Morningglory plant response rating (morningglory; [20]): 50; Morningglory plant response rating (morningglory; preemergence, 125 g ai/ha, scale 0 to 100, 0 is no effect, 100 is complete control): 75; Pigweed plant response rating (pigweed; [18]): 75; Pigweed plant response rating (pigweed; [13]): 90; Crabgrass, Large plant response rating (crabgrass, large; [18]): 25; Crabgrass, Large plant response rating (crabgrass, large; [13]): 75 |
| CCOc1cc(C(=O)NC2CC2)nn1Cc1ccnc(OC(F)F)c1 [Compound 133] | 90 | 90 | 100 | 85 | 20 | – | – | 100 | 40 | – | – | 100 | 100 | 100 | 100 | 100 | 100 | 100 | 100 | 90 | Nutsedge, Yellow plant response rating (nutsedge, yellow; [18]): 25; Plant response rating, Nutsedge, Yellow (nutsedge, yellow; 125 g ai/ha, 13 to 15 days): 70; Plant response rating (scale of 0 to 100), Morningglory (morningglory): 100; Morningglory plant response rating (morningglory; [19]): 75; Morningglory plant response rating (morningglory; [20]): 100; Plant response rating, Morningglory (morningglory; preemergence, 125 g ai/ha, 13 to 15 days, scale 0 to 100, 0 = no effect, 100 = complete control): 100; Pigweed plant response rating (pigweed; [18]): 75; Plant response rating, Pigweed (pigweed; 125 g ai/ha, 13 to 15 days): 100; Crabgrass, Large plant response rating (crabgrass, large; [18]): 100; Plant response rating, Crabgrass, Large (crabgrass, large; 125 g ai/ha, 13 to 15 days): 100 |
| CCCc1cc(C(=O)NCC(F)(F)F)nn1Cc1cc(C(F)(F)F)nn1C [Compound 138] | 100 | 90 | 100 | – | – | – | 10 | 100 | 50 | 60 | 100 | – | – | – | – | 100 | 100 | 100 | 100 | 100 | Corn plant response rating (corn; [16]): 90; Velvetleaf plant response rating (velvetleaf [5]; [17]): 100; Velvetleaf plant response rating (velvetleaf [6]; [16]): 100; Wheat plant response rating (wheat; [14]): 80; Wheat plant response rating (wheat; [15]): 90 |
| CCc1cc(C(=O)NCC(F)(F)F)nn1Cc1cc(OC(F)F)nn1C [Compound 206] | – | 0 | 0 | – | – | – | – | – | 0 | – | – | – | – | – | – | 90 | 80 | 100 | 60 | 0 | Barnyardgrass plant response rating (0 to 100 scale, 0 is no effect, 100 is complete control) (barnyardgrass [1]; [21]): 0; Foxtail, Giant plant response rating (0 to 100 scale) (foxtail, giant [3]; [21]): 0 |
